The results in this text go back to patent publication US7439207B2, “2,6 substituted pyridine-3-carbonyl derivatives serving as plant protection agents having herbicidal action” (Bayer CropScience AG, priority 2002, dated 2008).

The nature of series [1]: logP determination by HPLC on reversed-phase column (C 18), EEC Directive 79/831 Annex V.A8. The note with it: reversed-phase HPLC column (C 18); printed in text without mark a) or b). Format: physicochemical. The procedure:
The logP values given in the table were determined in accordance with EEC Directive 79/831 Annex V.A8 by HPLC (High Performance Liquid Chromatography) using a reversed-phase column (C 18). Temperature: 43° C. (a) Mobile phases for the determination in the acidic range: 0.1% aqueous phosphoric acid, acetonitrile; linear gradient from 10% acetonitrile to 90% acetonitrile—corresponding measurement results in Table 1 are marked ^a). (b) Mobile phases for the determination in the neutral range: 0.01 molar aqueous phosphate buffer solution, acetonitrile; linear gradient from 10% acetonitrile to 90% acetonitrile—corresponding measurement results in Table 1 are marked ^b). Calibration was carried out using unbranched alkan-2-ones (having 3 to 16 carbon atoms) with known logP values (determination of the logP values by the retention times using linear interpolation between two successive alkanones).

In series [2] the test system is weeds. Kind of series: Pre-emergence test (Example A), activity against weeds. Format: in vivo. The note with it: soil sprayed 24 hours after sowing, rated after three weeks. The procedure:
Pre-Emergence Test • Solvent: 5 parts by weight of acetone • Emulsifier: 1 part by weight of alkylaryl polyglycol ether
(§1) To produce a suitable preparation of active compound, 1 part by weight of active compound is mixed with the stated amount of solvent, the stated amount of emulsifier is added and the concentrate is diluted with water to the desired concentration.
Seeds of the test plants are sown in normal soil. After 24 hours, the soil is sprayed with the preparation of active compound such that the particular amount of active compound desired is supplied per unit area. The concentration of active compound in the spray liquor is chosen such that the particular amount of active compound desired is applied in 1000 litres of water per hectare.
After three weeks, the degree of damage to the plants is rated in % damage in comparison to the development of the untreated control. The figures denote: • 0%=no effect (like untreated control) • 100%=total destruction

In series [3] the test system is weeds. Kind of series: Post-emergence test (Example B), activity against weeds. In kind it is in vivo. The note with it: test plants of 5-15 cm sprayed, rated after three weeks. The procedure: Post-Emergence Test • Solvent: 5 parts by weight of acetone • Emulsifier: 1 part by weight of alkylaryl polyglycol ether
as §1
Test plants of a height of 5-15 cm are sprayed with the preparation of active compound such that the particular amounts of active compound desired are applied per unit area. The concentration of the spray liquor is chosen such that the particular amounts of active compound desired are applied in 1 000 1 l of water/ha.
After three weeks, the degree of damage to the plants is rated in % damage in comparison to development of the untreated control.
The figures denote: • 0%=no effect (like untreated control) • 100%=total destruction

A word on the chromatographic logP: it is a lipophilicity value derived from retention on a column. Read a low chromatographic logP as lower lipophilicity. For `CN1CCN(Cc2nc(C(F)(F)F)ccc2C(=O)C2C(=O)CCCC2=O)C1=O` [Example 1, 2-[2-(3-methyl-2-oxoimidazolidin-1-ylmethyl)-6-trifluoromethylpyridine-3-carbonyl]cyclohexane-1,3-dione], in series [1], the chromatographic logP is 2.14. For the same compound, the activity against weeds result in series [2] and in series [3] was “strong activity” in each case.
Consider `CN1CCN(Cc2nc(C(F)(F)F)ccc2C(=O)O)C1=O` [Example II-1, 6-trifluoromethyl-2-(3-methyl-2-oxoimidazolidin-1-ylmethyl)nicotinic acid], for which the chromatographic logP in series [1] was determined as 1.62.
